This note sets out measurements from patent US20110118262A1, “Pyrrolidinyl and Piperidinyl Compounds Useful as NHE-1 Inhibitiors” (BOEHRINGER INGELHEIM INTERNATIONAL GMBH, priority 2008, published 2011).

In this test the target is T1, NHE-1 (Homo sapiens, UniProt P19634).
T1 construct: endogenous in cells; host or cells: HT-29
Put plainly: Evaluation of NHE-1 Inhibition (pHi) in HT-29 cells. Format: cell-based. Conditions: BCECF dye, 50% inhibition of the intracellular pH recovery, read-out: NHE1 HT29 pHi IC50. Here is the method: Evaluation of NHE-1 Inhibition (pHi)
HT-29 cells resuspended in DMEM supplemented with 10% FBS, 1% NEAA, and 1% Penn-Strep are seeded at 10,000 cells/well in collagen coated 384 well plates which are then incubated for 24 hours at 37° C. The next day, the medium is removed and the cells are dye (Invitrogen's BCECF) loaded for 30 minutes at 37° C., washed three times with an acid loading buffer (10 mM NH4Cl, 1.8 mM CaCl2, 90 mM Choline Cl, 5 mM Glucose, 15 mM Hepes, 5 mM KCl, 1 mM MgCl2, adjusted to pH 7.5 with KOH) and further incubated at RT for 30 minutes.
At the end of the incubation, the buffer is removed and 5 uL of fresh acid loading buffer is added to each well to prevent the dessication of the cells. The plate is placed in a Hamamatsu FDSS6000 instrument and candidate compounds are added to the cells.

T1 sequence (P19634 whole entry): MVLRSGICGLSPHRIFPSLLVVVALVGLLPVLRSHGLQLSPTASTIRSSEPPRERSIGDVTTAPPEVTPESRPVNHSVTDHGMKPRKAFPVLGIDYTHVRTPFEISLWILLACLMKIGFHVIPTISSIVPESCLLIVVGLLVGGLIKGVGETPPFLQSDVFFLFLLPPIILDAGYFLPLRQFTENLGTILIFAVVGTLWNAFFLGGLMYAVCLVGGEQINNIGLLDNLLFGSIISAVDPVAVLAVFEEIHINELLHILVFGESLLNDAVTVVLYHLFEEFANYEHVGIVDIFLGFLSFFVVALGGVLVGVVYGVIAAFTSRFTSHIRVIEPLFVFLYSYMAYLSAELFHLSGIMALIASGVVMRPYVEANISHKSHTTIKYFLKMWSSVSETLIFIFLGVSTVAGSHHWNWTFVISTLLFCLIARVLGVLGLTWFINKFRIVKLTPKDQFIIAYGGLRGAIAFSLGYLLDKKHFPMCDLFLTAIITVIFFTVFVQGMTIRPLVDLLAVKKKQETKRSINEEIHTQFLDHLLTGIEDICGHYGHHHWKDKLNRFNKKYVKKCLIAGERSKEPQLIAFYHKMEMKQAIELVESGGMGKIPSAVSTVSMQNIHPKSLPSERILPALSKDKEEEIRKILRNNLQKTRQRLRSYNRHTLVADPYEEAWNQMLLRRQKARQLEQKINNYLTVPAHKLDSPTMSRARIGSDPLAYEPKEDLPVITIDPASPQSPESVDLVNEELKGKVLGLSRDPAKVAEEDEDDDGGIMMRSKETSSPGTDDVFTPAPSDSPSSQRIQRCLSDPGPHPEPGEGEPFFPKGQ

As for `CN(C)C(=O)c1ccc(C(=O)N2CCC(c3ccc(C(=O)NC(=N)N)cc3C(F)(F)F)CC2)cc1` [4-[4-(4-Guanidinocarbonyl-2-trifluoromethyl-phenyl)-piperidine-1-carbonyl]-N,N-dimethyl-benzamide], the IC50 (usually the concentration at which inhibition is half-maximal) came to 48 nM.

As to `COc1cc(C2CCN(C(=O)c3ccc(F)cc3)CC2)c(C(F)(F)F)cc1C(=O)NC(=N)N` [N-{4-[1-(4-Fluoro-benzoyl)-piperidin-4-yl]-2-methoxy-5-trifluoromethyl-benzoyl}-guanidine], the IC50 stood at 16 nM.

As to `N=C(N)NC(=O)c1ccc(C2CCN(C(=O)c3ccc(Cl)c(S(N)(=O)=O)c3)CC2)c(C(F)(F)F)c1` [2-Chloro-5-[4-(4-guanidinocarbonyl-2-trifluoromethyl-phenyl)-piperidine-1-carbonyl]-benzenesulfonamide], the IC50 turned out to be 13 nM.

For the compound `Cc1cc(C2CCN(C(=O)c3ccc(S(C)(=O)=O)cc3)CC2)c(C(F)(F)F)cc1C(=O)NC(=N)N` [N-{4-[1-(4-Methanesulfonyl-benzoyl)-piperidin-4-yl]-2-methyl-5-trifluoromethyl-benzoyl}-guanidine], the IC50 was 20 nM.

For `N=C(N)NC(=O)c1ccc(C2CCN(C(=O)c3cccc(F)c3)CC2)c(C(F)(F)F)c1` [N-{4-[1-(3-Fluoro-benzoyl)-piperidin-4-yl]-3-trifluoromethyl-benzoyl}-guanidine], the IC50 was 105 nM.

Consider `N=C(N)NC(=O)c1ccc(C2CCN(C(=O)Cc3ccc(F)cc3)CC2)c(C(F)(F)F)c1` [N-(4-{1-[2-(4-Fluoro-phenyl)-acetyl]-piperidin-4-yl}-3-trifluoromethyl-benzoyl)-guanidine], for which the IC50 was 135 nM.

For the compound `N#Cc1cccc(C(=O)N2CCC(c3ccc(C(=O)NC(=N)N)cc3C(F)(F)F)CC2)c1` [N-{4-[1-(3-Cyano-benzoyl)-piperidin-4-yl]-3-trifluoromethyl-benzoyl}-guanidine], the IC50 is 65 nM.

On to `N#Cc1ccccc1C(=O)N1CCC(c2ccc(C(=O)NC(=N)N)cc2C(F)(F)F)CC1` [N-{4-[1-(2-Cyano-benzoyl)-piperidin-4-yl]-3-trifluoromethyl-benzoyl}-guanidine], for which the IC50 was found to be 62 nM.

For the compound `N=C(N)NC(=O)c1ccc(C2=CCN(C(=O)c3ccc(-n4ccnc4)cc3)CC2)c(C(F)(F)F)c1` [N-{4-[1-(4-Imidazol-1-yl-benzoyl)-1,2,3,6-tetrahydro-pyridin-4-yl]-3-trifluoromethyl-benzoyl}-guanidine], the IC50 worked out at 33 nM.

`COc1ccc(C(=O)N2CCC(c3ccc(C(=O)NC(=N)N)cc3C(F)(F)F)CC2)c2ccccc12` [N-{4-[1-(4-Methoxy-naphthalene-1-carbonyl)-piperidin-4-yl]-3-trifluoromethyl-benzoyl}-guanidine]: the IC50 was found to be 320 nM.

Consider `Cc1ccc(C(=O)N2CCC(c3cc(C)c(C(=O)NC(=N)N)cc3C(F)(F)F)CC2)cn1` [N-{2-Methyl-4-[1-(6-methyl-pyridine-3-carbonyl)-piperidin-4-yl]-trifluoromethyl-benzoyl}-guanidine], for which the IC50 was determined as 82 nM.

Take `N=C(N)NC(=O)c1ccc(C2CCN(C(=O)c3cccc4ccccc34)CC2)c(C(F)(F)F)c1` [N-{4-[1-(Naphthalene-1-carbonyl)-piperidin-4-yl]-3-trifluoromethyl-benzoyl}-guanidine]: the IC50 amounted to 260 nM.

As for `N=C(N)NC(=O)c1ccc(C2CCN(C(=O)C3CCCCN3)CC2)c(C(F)(F)F)c1` (centres unmarked) [N-{4-[1-(Piperidine-2-carbonyl)-piperidin-4-yl]-3-trifluoromethyl-benzoyl}-guanidine], the IC50 was found to be 9 nM.

As to `COc1cc(C2CCN(C(=O)[C@@](C)(O)c3ccccc3)CC2)c(C(F)(F)F)cc1C(=O)NC(=N)N` [(S)-N-{4-[1-(2-Hydroxy-2-phenyl-propionyl)-piperidin-4-yl]-2-methoxy-5-trifluoromethyl-benzoyl}-guanidine], the IC50 is 200 nM.

For the compound `N=C(N)NC(=O)c1ccc(C2CCN(C(=O)c3ccc4ncsc4c3)CC2)c(C(F)(F)F)c1` [N-{4-[1-(Benzothiazole-6-carbonyl)-piperidin-4-yl]-3-trifluoromethyl-benzoyl}-guanidine], the IC50 came out at 114 nM.

Turning to `N=C(N)NC(=O)c1ccc(C2CCN(C(=O)C3(N)CCc4ccccc43)CC2)c(C(F)(F)F)c1` (centres unmarked) [N-{4-[1-(1-Amino-indane-1-carbonyl)-piperidin-4-yl]-3-trifluoromethyl-benzoyl}-guanidine], the IC50 is 18 nM.

As for `N=C(N)NC(=O)c1ccc(C2CCN(C(=O)c3ccc(F)cc3)C2)c(C(F)(F)F)c1` (centres unmarked) [N-{4-[1-(4-Fluoro-benzoyl)-pyrrolidin-3-yl]-3-trifluoromethyl-benzoyl}-guanidine], the half-maximal inhibitory concentration (IC50) was determined as 40 nM.

In the case of `N=C(N)NC(=O)c1ccc(C2CCN(C(=O)C3CCCC3)CC2)c(C(F)(F)F)c1` [N-[4-(1-Cyclopentanecarbonyl-piperidin-4-yl)-3-trifluoromethyl-benzoyl]-guanidine], the 50% inhibitory concentration (IC50) is 77 nM.

As to `COc1ncccc1C(=O)N1CCC(c2ccc(C(=O)NC(=N)N)cc2C(F)(F)F)CC1` [N-{4-[1-(2-Methoxy-pyridine-3-carbonyl)-piperidin-4-yl]-3-trifluoromethyl-benzoyl}-guanidine], the half-maximal inhibitory concentration (IC50) amounted to 42 nM.

Turning to `COc1cccnc1C(=O)N1CCC(c2ccc(C(=O)NC(=N)N)cc2C(F)(F)F)CC1` [N-{4-[1-(3-Methoxy-pyridine-2-carbonyl)-piperidin-4-yl]-3-trifluoromethyl-benzoyl}-guanidine], the IC50 amounted to 55 nM.

`N=C(N)NC(=O)c1ccc(C2CCN(C(=O)C3CCCNC3)CC2)c(C(F)(F)F)c1` (centres unmarked) [N-{4-[1-(Piperidine-3-carbonyl)-piperidin-4-yl]-3-trifluoromethyl-benzoyl}-guanidine]: the IC50 stood at 17 nM.

As for `Cc1cc(C2CCN(C(=O)c3ccc(F)cc3)CC2)c(C(F)(F)F)cc1C(=O)NC(=N)N` [N-{4-[1-(4-Fluoro-benzoyl)-piperidin-4-yl]-2-methyl-5-trifluoromethyl-benzoyl}-guanidine], the IC50 was 7 nM.

With `N=C(N)NC(=O)c1ccc(C2CCN(C(=O)c3cccnc3)CC2)c(C(F)(F)F)c1` [N-{4-[1-(Pyridine-3-carbonyl)-piperidin-4-yl]-3-trifluoromethyl-benzoyl}-guanidine], the IC50 is 10 nM.

With `CS(=O)(=O)c1ccc(C(=O)N2CCC(c3ccc(C(=O)NC(=N)N)cc3C(F)(F)F)CC2)c(Cl)c1` [N-{4-[1-(2-Chloro-4-methanesulfonyl-benzoyl)-piperidin-4-yl]-3-trifluoromethyl-benzoyl}-guanidine], the IC50 was 60 nM.

For the compound `Cn1ccnc1C(=O)N1CCC(c2ccc(C(=O)NC(=N)N)cc2C(F)(F)F)CC1` [N-{4-[1-(1-Methyl-1H-imidazole-2-carbonyl)-piperidin-4-yl]-3-trifluoromethyl-benzoyl}-guanidine], the 50% inhibitory concentration (IC50) came to 15 nM.

For the compound `N=C(N)NC(=O)c1ccc(C2CCN(C(=O)C(N)CC3CC3)CC2)c(C(F)(F)F)c1` (centres unmarked) [N-{4-[1-(2-Amino-3-cyclopropyl-propionyl)-piperidin-4-yl]-3-trifluoromethyl-benzoyl}-guanidine], the IC50 was determined as 19 nM.

With `N=C(N)NC(=O)c1ccc(C2CCN(C(=O)c3ccco3)CC2)c(C(F)(F)F)c1` [N-{4-[1-(Furan-2-carbonyl)-piperidin-4-yl]-3-trifluoromethyl-benzoyl}-guanidine], the IC50 turned out to be 55 nM.

Take `N=C(N)NC(=O)c1ccc(C2CCN(C(=O)c3ccc(C(=O)O)cc3)CC2)c(C(F)(F)F)c1` [4-[4-(4-Guanidinocarbonyl-2-trifluoromethyl-phenyl)-piperidine-1-carbonyl]-benzoic acid]: the IC50 turned out to be 27 nM.

As for `COc1cc(C(=O)N2CCC(c3ccc(C(=O)NC(=N)N)cc3C(F)(F)F)CC2)ccn1` [N-{4-[1-(2-Methoxy-pyridine-4-carbonyl)-piperidin-4-yl]-3-trifluoromethyl-benzoyl}-guanidine], the IC50 was found to be 40 nM.

For `COc1cc(C2CCN(C(=O)c3ccccn3)CC2)c(C(F)(F)F)cc1C(=O)NC(=N)N` [N-{2-Methoxy-4-[1-(pyridine-2-carbonyl)-piperidin-4-yl]-5-trifluoromethyl-benzoyl}-guanidine], the IC50 is 43 nM.

Turning to `N=C(N)NC(=O)c1ccc(C2CCN(C(=O)[C@@H]3CCC(=O)N3)CC2)c(C(F)(F)F)c1` [(S)-N-{4-[1-(-5-Oxo-pyrrolidine-2-carbonyl)-piperidin-4-yl]-3-trifluoromethyl-benzoyl}-guanidine], the IC50 was 11 nM.

As for `N#Cc1ccccc1C(=O)N1CC=C(c2ccc(C(=O)NC(=N)N)cc2C(F)(F)F)CC1` [N-{4-[1-(2-Cyano-benzoyl)-1,2,3,6-tetrahydro-pyridin-4-yl]-3-trifluoromethyl-benzoyl}-guanidine], the IC50 is 93 nM.

Turning to `C[S+]([O-])c1ccccc1C(=O)N1CCC(c2ccc(C(=O)NC(=N)N)cc2C(F)(F)F)CC1` (centres unmarked) [N-{4-[1-(2-Methanesulfinyl-benzoyl)-piperidin-4-yl]-3-trifluoromethyl-benzoyl}-guanidine], the IC50 stood at 54 nM.

As for `N=C(N)NC(=O)c1ccc(C2CCN(C(=O)C3CCOCC3)CC2)c(C(F)(F)F)c1` [N-{4-[1-(Tetrahydro-pyran-4-carbonyl)-piperidin-4-yl]-3-trifluoromethyl-benzoyl}-guanidine], the IC50 is 61 nM.

With `N=C(N)NC(=O)c1ccc(C2CCN(C(=O)c3cccc(-n4cccn4)c3)CC2)c(C(F)(F)F)c1` [N-{4-[1-(3-Pyrazol-1-yl-benzoyl)-piperidin-4-yl]-3-trifluoromethyl-benzoyl}-guanidine], the IC50 came out at 150 nM.
